{"source": "the NIST ThermoML archive (doi:10.1016/j.jct.2015.07.005)", "details": "Gas, Frequency=0.005 MHz, Spherical cavity resonance method", "note": "Where “and” joins values, the source holds several entries; their conditions need not be identical. Equal values may be shown once. ± gives the expanded uncertainty stated by the source."}
{"smiles": "CC", "note": "[ethane]", "values": [{"measurement": "speed of sound", "setting": "280.01 K, 500.43 kPa", "value": "294.64 ± 0.049 m/s and 294.65 ± 0.049 m/s and 294.64 ± 0.048 m/s"}, {"measurement": "speed of sound", "setting": "280.02 K, 500.43 kPa", "value": "294.65 ± 0.049 m/s and 294.65 ± 0.05 m/s"}, {"measurement": "speed of sound", "setting": "280.02 K, 500.44 kPa", "value": "294.65 ± 0.049", "unit": "m/s"}, {"measurement": "speed of sound", "setting": "319.55 K, 463.5 kPa", "value": "316.22 ± 0.048", "unit": "m/s"}, {"measurement": "speed of sound", "setting": "319.55 K, 463.51 kPa", "value": "316.22 ± 0.048", "unit": "m/s"}, {"measurement": "speed of sound", "setting": "319.95 K, 464.08 kPa", "value": "316.4 ± 0.048", "unit": "m/s"}, {"measurement": "speed of sound", "setting": "319.95 K, 464.09 kPa", "value": "316.4 ± 0.048", "unit": "m/s"}, {"measurement": "speed of sound", "setting": "324.99 K, 479.74 kPa", "value": "318.64 ± 0.049", "unit": "m/s"}, {"measurement": "speed of sound", "setting": "324.99 K, 479.75 kPa", "value": "318.65 ± 0.051", "unit": "m/s"}, {"measurement": "speed of sound", "setting": "325 K, 479.75 kPa", "value": "318.65 ± 0.05 m/s and 318.65 ± 0.051 m/s"}, {"measurement": "speed of sound", "setting": "325 K, 479.76 kPa", "value": "318.65 ± 0.05", "unit": "m/s"}, {"measurement": "speed of sound", "setting": "339.37 K, 492.93 kPa", "value": "325.4 ± 0.075", "unit": "m/s"}, {"measurement": "speed of sound", "setting": "339.89 K, 493.66 kPa", "value": "325.64 ± 0.075", "unit": "m/s"}, {"measurement": "speed of sound", "setting": "359.27 K, 522.1 kPa", "value": "334.3 ± 0.049", "unit": "m/s"}, {"measurement": "speed of sound", "setting": "359.27 K, 522.11 kPa", "value": "334.3 ± 0.049", "unit": "m/s"}, {"measurement": "speed of sound", "setting": "359.85 K, 523.03 kPa", "value": "334.57 ± 0.048 m/s and 334.57 ± 0.05 m/s"}, {"measurement": "speed of sound", "setting": "365 K, 479.42 kPa", "value": "337.34 ± 0.051 m/s and 337.34 ± 0.052 m/s"}, {"measurement": "speed of sound", "setting": "365.01 K, 479.42 kPa", "value": "337.35 ± 0.051 m/s and 337.35 ± 0.052 m/s"}, {"measurement": "speed of sound", "setting": "365.01 K, 479.43 kPa", "value": "337.34 ± 0.051 m/s and 337.35 ± 0.053 m/s"}, {"measurement": "speed of sound", "setting": "379.19 K, 551.11 kPa", "value": "342.95 ± 0.049", "unit": "m/s"}, {"measurement": "speed of sound", "setting": "379.76 K, 551.9 kPa", "value": "343.19 ± 0.049", "unit": "m/s"}, {"measurement": "speed of sound", "setting": "379.77 K, 551.9 kPa", "value": "343.19 ± 0.049", "unit": "m/s"}, {"measurement": "speed of sound", "setting": "399.22 K, 579.97 kPa", "value": "351.41 ± 0.049", "unit": "m/s"}, {"measurement": "speed of sound", "setting": "399.8 K, 580.93 kPa", "value": "351.69 ± 0.05 m/s and 351.69 ± 0.049 m/s"}, {"measurement": "speed of sound", "setting": "404.98 K, 531.39 kPa", "value": "354.23 ± 0.05", "unit": "m/s"}, {"measurement": "speed of sound", "setting": "404.98 K, 531.4 kPa", "value": "354.23 ± 0.051", "unit": "m/s"}, {"measurement": "speed of sound", "setting": "404.98 K, 531.41 kPa", "value": "354.22 ± 0.05", "unit": "m/s"}, {"measurement": "speed of sound", "setting": "419.45 K, 608.87 kPa", "value": "359.75 ± 0.053", "unit": "m/s"}, {"measurement": "speed of sound", "setting": "419.46 K, 608.88 kPa", "value": "359.76 ± 0.053", "unit": "m/s"}, {"measurement": "speed of sound", "setting": "419.91 K, 609.51 kPa", "value": "359.94 ± 0.054", "unit": "m/s"}, {"measurement": "speed of sound", "setting": "419.92 K, 609.52 kPa", "value": "359.95 ± 0.053", "unit": "m/s"}, {"measurement": "speed of sound", "setting": "444.98 K, 496.44 kPa", "value": "370.72 ± 0.052", "unit": "m/s"}, {"measurement": "speed of sound", "setting": "444.98 K, 496.45 kPa", "value": "370.72 ± 0.053 m/s and 370.72 ± 0.052 m/s and 370.72 ± 0.054 m/s"}, {"measurement": "speed of sound", "setting": "444.99 K, 496.45 kPa", "value": "370.72 ± 0.053", "unit": "m/s"}, {"measurement": "speed of sound", "setting": "484.95 K, 497.52 kPa", "value": "386.13 ± 0.056", "unit": "m/s"}, {"measurement": "speed of sound", "setting": "484.95 K, 497.53 kPa", "value": "386.13 ± 0.056", "unit": "m/s"}, {"measurement": "speed of sound", "setting": "484.95 K, 497.54 kPa", "value": "386.13 ± 0.055", "unit": "m/s"}, {"measurement": "speed of sound", "setting": "484.95 K, 497.55 kPa", "value": "386.14 ± 0.055", "unit": "m/s"}, {"measurement": "speed of sound", "setting": "484.95 K, 497.56 kPa", "value": "386.14 ± 0.055", "unit": "m/s"}, {"measurement": "speed of sound", "setting": "484.96 K, 497.55 kPa", "value": "386.14 ± 0.055 m/s and 386.14 ± 0.056 m/s"}, {"measurement": "speed of sound", "setting": "484.96 K, 539.51 kPa", "value": "386 ± 0.055", "unit": "m/s"}, {"measurement": "speed of sound", "setting": "484.96 K, 539.52 kPa", "value": "386 ± 0.056 m/s and 386 ± 0.057 m/s"}]}
